According to patent publication US9562035B2, “Benzamide derivative useful as FASN inhibitors for the treatment of cancer” (Janssen Pharmaceutica NV, priority 2013, dated 2017):
pIC50: −log10 of the molar value.

Legend:
[1] = target: T1, hFASN enzyme (full length) (Homo sapiens, UniProt P49327); assay: Fatty Acid Synthase (FASN) Inhibition Scintillation Proximity Assay; format: biochemical; conditions: for pIC50: mean where tested more than once, ~ = standard error of pIC50 larger than 0.5; for inhibition at 10 µM: read-out: FASN % Effect @1E−05M
T1 construct: 10 μL hFASN enzyme (full length, 300 ng, purified in house); made in house
Method in brief: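 Eight compound concentrations (0.01–30 μM) tested in pH 7.5 phosphate buffer with DTT; human full-length enzyme converted [3H]-acetyl-CoA plus malonyl-CoA, with NADPH, over 60 min at room temperature. Hydrophobic [3H]-palmitate detected by bead proximity scintillation imaging; control-normalised data fitted for IC50/pIC50.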

[2] = target: T2, FASN Keto-reductase Domain (Homo sapiens, UniProt P49327); assay: Fatty Acid Synthase Keto-Reductase Domain (FASN KR) Inhibition; format: biochemical; conditions: mean where tested more than once; read-out: FASN K-R Domain pIC50 (converted)
T2 construct: 10 μL hFASN enzyme (full length, 300 ng, purified in house) and 360 μM NADPH; made in house
Method in brief: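 Keto-reductase activity followed as NADPH consumption (A340 drop between 0 and 20 min, room temperature) using in-house full-length hFASN, 360 μM NADPH and ethyl acetoacetate substrate (180 mM stock), pH 7.5 phosphate buffer.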

A2780 ovarian cells [3] = assay: A2780 Ovarian Cell Proliferation Assay in Lipid Reduced Medium, without Palmitate; format: cell-based; conditions: Homo sapiens, A2780; lipid reduced medium, without palmitate, 96 h, MTT; read-out: Proliferation A2780 w/o Palmitate pIC50 (converted)
Method in brief: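 A2780 cells were seeded in 10% FCS medium and switched next day to 10% lipid-reduced serum without palmitate. Compounds at 0.01–30 μM were added with 0.2% DMSO, 0.2% fatty-acid-free BSA and 0.25% ethanol final. After 96 h, MTT absorbance at 544 nm was normalized to plate controls, and IC50/pIC50 came from a 4-parameter logistic fit.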

A2780 ovarian cells [4] = assay: A2780 Ovarian Cell Proliferation Assay in Lipid Reduced Medium, with Palmitate (control); format: cell-based; conditions: Homo sapiens, A2780; lipid reduced medium, 25 μM palmitate, 96 h, MTT; read-out: Proliferation A2780 with Palmitate pIC50 (converted)
Method in brief: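 Read-out was MTT absorbance at 544 nm after 96 h at 37 °C. Cells grown overnight in RPMI1640/10% FCS were moved to 10% lipid-reduced serum with compound plus palmitate (final 25 μM, 0.2% fatty-acid-free BSA, 0.2% DMSO). IC50 came from least-squares curve fitting, expressed as −log(IC50).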

T1 sequence (P49327 whole entry): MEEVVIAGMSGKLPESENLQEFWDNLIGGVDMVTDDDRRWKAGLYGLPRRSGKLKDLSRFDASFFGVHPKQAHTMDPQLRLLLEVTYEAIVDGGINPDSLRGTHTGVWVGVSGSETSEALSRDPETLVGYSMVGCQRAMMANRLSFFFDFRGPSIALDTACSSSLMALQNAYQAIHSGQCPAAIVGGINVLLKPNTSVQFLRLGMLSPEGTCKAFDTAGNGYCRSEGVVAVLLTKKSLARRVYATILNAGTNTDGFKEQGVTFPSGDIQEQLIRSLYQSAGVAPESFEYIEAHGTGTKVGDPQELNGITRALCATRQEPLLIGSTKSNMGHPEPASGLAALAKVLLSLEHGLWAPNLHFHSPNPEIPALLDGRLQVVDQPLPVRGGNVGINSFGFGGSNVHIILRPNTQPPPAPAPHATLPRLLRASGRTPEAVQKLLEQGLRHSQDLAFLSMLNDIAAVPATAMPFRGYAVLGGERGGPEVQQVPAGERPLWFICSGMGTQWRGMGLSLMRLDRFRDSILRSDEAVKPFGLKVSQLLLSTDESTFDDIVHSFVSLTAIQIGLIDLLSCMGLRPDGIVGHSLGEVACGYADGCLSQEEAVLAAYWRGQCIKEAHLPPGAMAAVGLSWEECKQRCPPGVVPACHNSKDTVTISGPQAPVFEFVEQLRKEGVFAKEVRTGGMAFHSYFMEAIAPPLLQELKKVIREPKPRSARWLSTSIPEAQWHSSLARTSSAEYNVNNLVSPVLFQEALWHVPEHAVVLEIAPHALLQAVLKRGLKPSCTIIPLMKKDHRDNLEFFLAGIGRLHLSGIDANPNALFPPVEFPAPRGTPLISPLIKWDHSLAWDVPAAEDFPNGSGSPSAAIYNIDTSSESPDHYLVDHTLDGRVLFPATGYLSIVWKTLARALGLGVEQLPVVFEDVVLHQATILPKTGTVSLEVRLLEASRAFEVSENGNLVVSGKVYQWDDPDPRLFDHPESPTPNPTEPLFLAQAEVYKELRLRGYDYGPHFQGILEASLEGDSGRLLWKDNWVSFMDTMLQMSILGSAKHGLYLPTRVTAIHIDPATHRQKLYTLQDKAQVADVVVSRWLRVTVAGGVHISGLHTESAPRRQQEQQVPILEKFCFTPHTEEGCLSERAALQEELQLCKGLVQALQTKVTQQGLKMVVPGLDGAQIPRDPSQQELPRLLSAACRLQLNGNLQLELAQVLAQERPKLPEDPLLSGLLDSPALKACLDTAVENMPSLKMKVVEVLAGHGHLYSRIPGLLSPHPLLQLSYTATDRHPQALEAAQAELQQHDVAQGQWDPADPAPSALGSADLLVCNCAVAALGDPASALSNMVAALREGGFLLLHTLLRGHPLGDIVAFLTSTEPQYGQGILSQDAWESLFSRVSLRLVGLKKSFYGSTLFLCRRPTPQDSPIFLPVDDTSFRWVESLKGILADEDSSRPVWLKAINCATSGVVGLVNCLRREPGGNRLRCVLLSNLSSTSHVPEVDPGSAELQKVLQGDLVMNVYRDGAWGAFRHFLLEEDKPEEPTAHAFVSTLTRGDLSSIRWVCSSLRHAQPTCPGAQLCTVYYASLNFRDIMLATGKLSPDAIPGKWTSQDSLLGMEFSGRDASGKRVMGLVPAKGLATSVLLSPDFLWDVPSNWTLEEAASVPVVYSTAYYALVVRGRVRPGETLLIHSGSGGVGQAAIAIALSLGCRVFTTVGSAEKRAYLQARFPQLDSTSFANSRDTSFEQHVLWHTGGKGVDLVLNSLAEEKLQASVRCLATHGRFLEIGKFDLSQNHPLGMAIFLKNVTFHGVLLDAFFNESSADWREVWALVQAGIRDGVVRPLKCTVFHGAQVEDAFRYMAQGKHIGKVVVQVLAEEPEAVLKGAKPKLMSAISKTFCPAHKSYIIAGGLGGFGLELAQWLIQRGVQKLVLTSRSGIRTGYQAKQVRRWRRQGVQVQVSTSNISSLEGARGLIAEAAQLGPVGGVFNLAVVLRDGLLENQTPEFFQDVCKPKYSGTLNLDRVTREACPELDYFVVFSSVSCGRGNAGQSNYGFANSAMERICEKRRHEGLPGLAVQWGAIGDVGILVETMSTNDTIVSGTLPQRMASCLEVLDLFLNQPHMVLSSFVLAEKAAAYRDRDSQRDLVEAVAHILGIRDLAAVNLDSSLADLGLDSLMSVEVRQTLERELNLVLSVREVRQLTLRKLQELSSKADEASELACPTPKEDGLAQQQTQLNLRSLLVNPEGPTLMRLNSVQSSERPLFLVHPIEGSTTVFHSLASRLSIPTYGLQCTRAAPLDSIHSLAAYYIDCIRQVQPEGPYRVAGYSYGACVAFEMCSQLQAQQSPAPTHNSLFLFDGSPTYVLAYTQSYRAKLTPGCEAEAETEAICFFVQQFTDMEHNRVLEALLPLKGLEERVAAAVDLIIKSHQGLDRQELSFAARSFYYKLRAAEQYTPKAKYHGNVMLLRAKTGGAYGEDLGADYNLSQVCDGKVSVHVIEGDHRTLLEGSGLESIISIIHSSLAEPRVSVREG
T2 sequence (P49327 whole entry, the tested form may be a part): as the sequence (P49327 whole entry) above

| Structure (SMILES) | pIC50 [1] | inhibition at 10 µM [1] [%] | IC50 [2] [µM] | IC50 (A2780 ovarian cells [3]) [µM] | IC50 (A2780 ovarian cells [4]) [µM] |
| --- | --- | --- | --- | --- | --- |
| Cc1ccc(C(=O)N2CCC(c3ccc(-c4ccoc4)cc3)CC2)cc1NC(=O)c1ccc(NC(C)C)nc1 [Compound 235, N-(5-(4-(4-(furan-3-yl)phenyl)piperidine-1-carbonyl)-2-methylphenyl)-6-(isopropylamino)nicotinamide] | 7.27 | 112 | 0.102 | 0.0741 | 1.58 |
| Cc1ccc(C(=O)N2CCC(c3ccc(-c4cccs4)cc3)CC2)cc1NC(=O)c1ccc(NC(C)C)nc1 [Compound 236, 6-(isopropylamino)-N-(2-methyl-5-(4-(4-(thiophen-2-yl)phenyl)piperidine-1-carbonyl)phenyl)nicotinamide] | ~6.51 | 74 | 0.355 | 0.603 | 1.95 |
| Cc1ccc(C(=O)N2CCC(c3ccc(-c4cnn(C)c4)cc3)C2)cc1NC(=O)c1ccc(NC(C)C)nc1 (stereo not shown) [Compound 237, 6-(isopropylamino)-N-(2-methyl-5-(3-(4-(1-methyl-1H-pyrazol-4-yl)phenyl)pyrrolidine-1-carbonyl)phenyl)nicotinamide] | 6.89 | 101 | 0.38 | 0.166 | > 10 |
| Cc1ccc(C(=O)N2CCC(c3ccc(-c4cnn(C)c4)cc3)CC2)cc1NC(=O)[C@H]1CCCN1C [Compound 239, (R)-1-methyl-N-(2-methyl-5-(4-(4-(1-methyl-1H-pyrazol-4-yl)phenyl)piperidine-1-carbonyl)phenyl)pyrrolidine-2-carboxamide] | 6.91 | 110 | 0.457 | 0.195 | > 10 |
| CCCCN1CC(C(=O)Nc2cc(C(=O)N3CCC(c4ccc(-c5cnn(C)c5)cc4)CC3)ccc2C)C1 [Compound 242, 1-butyl-N-(2-methyl-5-(4-(4-(1-methyl-1H-pyrazol-4-yl)phenyl)piperidine-1-carbonyl)phenyl)azetidine-3-carboxamide] | 7.14 | 105 | 0.158 | 0.0955 | > 10 |
| CCCCCCN1CC(C(=O)Nc2cc(C(=O)N3CCC(c4ccc(-c5cnn(C)c5)cc4)CC3)ccc2C)C1 [Compound 243, 1-hexyl-N-(2-methyl-5-(4-(4-(1-methyl-1H-pyrazol-4-yl)phenyl)piperidine-1-carbonyl)phenyl)azetidine-3-carboxamide] | 6.89 | 105 | 0.186 | 0.24 | 7.08 |
| Cc1ccc(C(=O)N2CCC(c3ccc(-c4cnn(C)c4)cc3)CC2)cc1NC(=O)c1nc(Br)cs1 [Compound 244, 4-bromo-N-(2-methyl-5-(4-(4-(1-methyl-1H-pyrazol-4-yl)phenyl)piperidine-1-carbonyl)phenyl)thiazole-2-carboxamide] | 7.35 | 106 | 0.191 | 0.0955 | 8.32 |
| Cc1ccc(C(=O)N2CCC(c3ccc(-c4cn(C)nc4C)cc3)CC2)cc1NC(=O)c1ccc(NC(C)C)nc1 [Compound 245, N-(5-(4-(4-(1,3-dimethyl-1H-pyrazol-4-yl)phenyl)piperidine-1-carbonyl)-2-methylphenyl)-6-(isopropylamino)nicotinamide] | 7.47 | 108 | 0.0759 | ~0.0316 | > 10 |
| Cc1ccc(C(=O)N2CCC(c3ccc(-c4cnn(C(C)C)c4)cc3)CC2)cc1NC(=O)c1ccc(NC(C)C)nc1 [Compound 247, N-(5-(4-(4-(1-isopropyl-1H-pyrazol-4-yl)phenyl)piperidine-1-carbonyl)-2-methylphenyl)-6-(isopropylamino)nicotinamide] | 7.47 | 112 | 0.0912 | 0.0389 | 6.17 |
| Cc1ccc(C(=O)N2CCC(c3ccc(-c4cnn(CC5CC5)c4)cc3)CC2)cc1NC(=O)c1ccc(NC(C)C)nc1 [Compound 249, N-(5-(4-(4-(1-(cyclopropylmethyl)-1H-pyrazol-4-yl)phenyl)piperidine-1-carbonyl)-2-methylphenyl)-6-(isopropylamino)nicotinamide] | 7.27 | 109 | 0.1 | 0.0724 | 5.25 |
| Cc1ccc(C(=O)N2CCC(c3ccc(-c4ccc(F)cc4)cc3)CC2)cc1NC(=O)c1ccc(NC(C)C)nc1 [Compound 250, N-(5-(4-(4′-fluoro-[1,1′-biphenyl]-4-yl)piperidine-1-carbonyl)-2-methylphenyl)-6-(isopropylamino)nicotinamide] | 6.64 | 65 | 0.209 | 0.49 | 1.62 |

More lines, in order of rising pIC50 [1], values ahead:

| pIC50 [1] | inhibition at 10 µM [1] [%] | IC50 [2] [µM] | IC50 (A2780 ovarian cells [3]) [µM] | IC50 (A2780 ovarian cells [4]) [µM] | Structure (SMILES) |
| --- | --- | --- | --- | --- | --- |
| 6.32 | 100 | 1.02 | 0.741 | > 10 | Cc1ccc(C(=O)N2CCC(c3ccc(-c4cnn(C)c4)cc3)CC2)cc1NC(=O)[C@@H]1CCCN1C [Compound 238, (S)-1-methyl-N-(2-methyl-5-(4-(4-(1-methyl-1H-pyrazol-4-yl)phenyl)piperidine-1-carbonyl)phenyl)pyrrolidine-2-carboxamide] |
| 6.78 | 106 | 0.437 | 0.347 | 1.45 | Cc1ccc(C(=O)N2CCC(c3ccc(-c4ccco4)cc3)CC2)cc1NC(=O)c1ccc(NC(C)C)nc1 [Compound 252, N-(5-(4-(4-(furan-2-yl)phenyl)piperidine-1-carbonyl)-2-methylphenyl)-6-(isopropylamino)nicotinamide] |
| 6.84 | 101 | 0.468 | 0.148 | > 10 | Cc1ccc(C(=O)N2CCC(c3ccc(-c4cnn(C)c4)cc3)CC2)cc1NC(=O)C1CCN(C2CCC2)C1 (stereo not shown) [Compound 241, 1-cyclobutyl-N-(2-methyl-5-(4-(4-(1-methyl-1H-pyrazol-4-yl)phenyl)piperidine-1-carbonyl)phenyl)pyrrolidine-3-carboxamide] |
| 7.08 | 106 | 0.407 | 0.162 | > 10 | Cc1ccc(C(=O)N2CCC(c3ccc(-c4cnn(C)c4)cc3)CC2)cc1NC(=O)C1CN(C2CCC2)C1 [Compound 240, 1-cyclobutyl-N-(2-methyl-5-(4-(4-(1-methyl-1H-pyrazol-4-yl)phenyl)piperidine-1-carbonyl)phenyl)azetidine-3-carboxamide] |
| 7.27 | 110 | 0.245 | 0.112 | 8.32 | Cc1ccc(C(=O)N2CCC(c3ccc(-c4cnn(C)c4C)cc3)CC2)cc1NC(=O)c1ccc(NC(C)C)nc1 [Compound 246, N-(5-(4-(4-(1,5-dimethyl-1H-pyrazol-4-yl)phenyl)piperidine-1-carbonyl)-2-methylphenyl)-6-(isopropylamino)nicotinamide] |
| 7.36 | 108 | 0.0933 | 0.0355 | 3.55 | Cc1ccc(C(=O)N2CCC(c3ccc(-c4cnn(C5CCC5)c4)cc3)CC2)cc1NC(=O)c1ccc(NC(C)C)nc1 [Compound 248, N-(5-(4-(4-(1-cyclobutyl-1H-pyrazol-4-yl)phenyl)piperidine-1-carbonyl)-2-methylphenyl)-6-(isopropylamino)nicotinamide] |
